Measurements reported in ChEMBL document CHEMBL2203217, “Prohormone-substrate peptide sequence recognition by peptidylglycine α-amidating monooxygenase and its reflection in increased glycolate inhibitor potency” (Bioorg Med Chem Lett, 2012).

Legend:
[1] = molecular target: T1, Peptidyl-glycine alpha-amidating monooxygenase (Homo sapiens, UniProt P19021); assay: Competitive inhibition of secreted PAM in human DMS53 cell culture medium using as(R)-Tyr-(S)-Val-Gly as substrate after 2 hrs by HPLC analysis; parameters: species or system DMS-53
T1 sequence (P19021 whole entry): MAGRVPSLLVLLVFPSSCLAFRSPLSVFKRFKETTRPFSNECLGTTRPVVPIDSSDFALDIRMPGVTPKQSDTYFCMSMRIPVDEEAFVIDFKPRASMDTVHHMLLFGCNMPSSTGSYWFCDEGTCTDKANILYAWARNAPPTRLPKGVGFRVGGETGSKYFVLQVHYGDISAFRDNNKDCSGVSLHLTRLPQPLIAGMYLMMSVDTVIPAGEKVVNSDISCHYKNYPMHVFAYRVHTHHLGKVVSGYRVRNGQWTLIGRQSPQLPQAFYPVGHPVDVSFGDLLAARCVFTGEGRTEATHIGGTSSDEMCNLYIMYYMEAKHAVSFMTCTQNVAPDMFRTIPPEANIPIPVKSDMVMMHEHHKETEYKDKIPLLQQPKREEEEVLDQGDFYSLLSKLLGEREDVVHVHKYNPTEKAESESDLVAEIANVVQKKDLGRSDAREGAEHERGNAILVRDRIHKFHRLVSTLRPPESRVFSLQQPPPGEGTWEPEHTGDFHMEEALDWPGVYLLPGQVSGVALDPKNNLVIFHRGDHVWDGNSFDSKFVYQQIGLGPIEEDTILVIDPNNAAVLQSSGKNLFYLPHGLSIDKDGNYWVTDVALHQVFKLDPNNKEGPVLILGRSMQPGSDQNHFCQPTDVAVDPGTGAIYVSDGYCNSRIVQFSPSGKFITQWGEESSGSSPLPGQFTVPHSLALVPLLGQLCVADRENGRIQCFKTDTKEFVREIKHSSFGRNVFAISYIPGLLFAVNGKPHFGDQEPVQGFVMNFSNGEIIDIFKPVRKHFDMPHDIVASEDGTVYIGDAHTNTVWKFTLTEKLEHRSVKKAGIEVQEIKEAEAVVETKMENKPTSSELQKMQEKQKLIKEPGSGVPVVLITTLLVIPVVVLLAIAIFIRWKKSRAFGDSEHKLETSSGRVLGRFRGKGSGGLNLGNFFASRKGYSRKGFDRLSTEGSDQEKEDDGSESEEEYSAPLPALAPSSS

[2] = molecular target: T1, Peptidyl-glycine alpha-amidating monooxygenase; assay: Competitive inhibition of PAM in human DMS53 cells using as(R)-Tyr-(S)-Val-Gly as substrate after 2 hrs by HPLC analysis; format: cell-based, DMS-53

IC50 [1]: 290 µM
IC50 [2]: 370 µM
Compound: C[C@H](N)C(=O)N1CCC[C@H]1C(=O)OCC(=O)O
